Source: patent US20240140895A1, “NOVEL AROMATIC MOLECULES” (XENIOPRO GmbH, priority 2018, published 2024)

System: Notch signaling (human Notch1 receptor, hNotch1ΔE)
Assay: Notch reporter assay (dual luciferase, HeLa cells transfected with hNotch1ΔE)
Format: cell-based
Conditions: 10 μM
From the text: The activation level of Notch signaling can be quantified in vitro reliably by measuring the expression levels of Notch specific target genes. This can be accomplished by the quantification of corresponding mRNA or protein of a particular Notch target gene. Alternatively, cells can be genetically modified to carry a luciferase gene as an artificial Notch target gene, which is expressed in dependence of Notch activity. In this setting, Notch signaling levels can be quantified by measuring the luciferase-derived bioluminescence values.
An according Notch-reporter assay, i.e. a luciferase-based luminescence readout, was used here to quantify the ability of the claimed compounds to augment Notch signaling in a cellular system. […] After 24 hours of transfection, the transfected cells were carefully detached from the dish using 0.5 mM EDTA in PBS and seeded into 96-well plates suitable for luminescence readouts (CORNING, #3610) at 10,000 cells per well. […] Directly after the lysis, first the Firefly and then the Renilla luciferase values were measured consecutively from the same well with a luminescence reader immediately after applying 15 μL per well each of the corresponding enzyme substrates needed to create the luminescence signals (Promega, Dual-Luciferase® Reporter Assay System, #E1910). […]

Compound: Oc1ccc(C=Cc2cc(O)cc(O)c2)cc1 [RES, resveratrol, reference compound]
- Activity Range: weighted arithmetic mean (AVEw) of double-normalized Notch-reporter luminescence, relative to DMSO basis level 1.0: 1.9 ± 0.5
